Results as given in the supplement of paper PMC9938120.

Tested on: FMOC25_1 (patient-derived low-grade serous ovarian cancer cells)
Test: drug sensitivity score (DSS3, normalised partial AUC of % inhibition dose-response) (DSS (score)); higher = more sensitive (stronger inhibition of viability); extreme values may be limits of the assay
Conditions: 72 h; library: FO4B; assay format: 2D, 384-well, CellTiter-Glo
Summary of the method: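 On 384-well flat clear-bottom plates carrying compounds at five concentrations across a 10,000-fold range, patient-derived ovarian cancer cells below passage 10 were incubated for 72 h at 37 °C with 5% CO2. CellTiter-Glo readout of viability was processed in Breeze. A higher drug sensitivity score, defined as the partial area under the percent-inhibition dose-response curve divided by the log of the upper asymptote, means greater sensitivity.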

C[C@]12O[C@H](C[C@]1(O)CO)n1c3ccccc3c3c4c(c5c6ccccc6n2c5c31)CNC4=O [Lestaurtinib]
drug sensitivity score: 5.3

c1ccc([C@H]2CN3CCSC3=N2)cc1 [Levamisole]
drug sensitivity score: 0

O=NN(CCCl)C(=O)NC1CCCCC1 [Lomustine]
drug sensitivity score: 0

C=CCn1c(=O)c2cnc(Nc3ccc(N4CCN(C)CC4)cc3)nc2n1-c1cccc(C(C)(C)O)n1 [MK1775]
drug sensitivity score: 11.5

CN(C[C@@H]1COCCO1)S(=O)(=O)Nc1ccc2ccc3ncc(-c4cnn(C)c4)cc3c(=O)c2c1 [MK-2461]
drug sensitivity score: 2.8

CC(C)n1nc(-c2ccc3oc(N)nc3c2)c2c(N)ncnc21 [MLN-0128]
drug sensitivity score: 21

O=C(O)c1ccc(Nc2ncc3c(n2)-c2ccc(Cl)cc2C(c2c(F)cccc2F)=NC3)cc1 [MLN-8054]
drug sensitivity score: 0

N[C@@H](Cc1ccc(N(CCCl)CCCl)cc1)C(=O)O [Melphalan]
drug sensitivity score: 0

CCN1CCN(Cc2ccc(-c3cc4c(N[C@H](C)c5ccccc5)ncnc4[nH]3)cc2)CC1 [NVP-AEE788]
drug sensitivity score: 6

CCN1CCN(c2ccc(Nc3cc(N(C)C(=O)Nc4c(Cl)c(OC)cc(OC)c4Cl)ncn3)cc2)CC1 [NVP-BGJ398]
drug sensitivity score: 0

CNC(=O)c1ccc(-c2cnc3ncc(Cc4ccc5ncccc5c4)n3n2)cc1F [NVP-INC280]
drug sensitivity score: 0

COc1ccc(C2=N[C@@H](c3ccc(Cl)cc3)[C@@H](c3ccc(Cl)cc3)N2C(=O)N2CCNC(=O)C2)c(OC(C)C)c1 [Nutlin-3]
drug sensitivity score: 3.5

COc1cccc2cc(-c3nc([C@H]4CC[C@H](C(=O)O)CC4)n4ncnc(N)c34)[nH]c12 [OSI-027]
drug sensitivity score: 8.2

O=C(Nc1ccc(OC(F)(F)F)cc1)c1sccc1NCc1ccnc2ccccc12 [OSI-930]
drug sensitivity score: 0

CC(=O)c1cnc2ccc(-c3cc(Cl)c(O)c(Cl)c3)nc2c1N[C@H]1CC[C@H](CN(C)C)CC1 [OTSSP167]
drug sensitivity score: 7.7

Cc1sc2c(c1C)C(c1ccc(Cl)cc1)=N[C@@H](CC(=O)Nc1ccc(O)cc1)c1nnc(C)n1-2 [OTX015]
drug sensitivity score: 6.3

COC1=CC(c2cc3ccccc3[nH]2)=N/C1=C\c1[nH]c(C)cc1C [Obatoclax]
drug sensitivity score: 1.8

Cc1[nH]c(/C=C2\C(=O)Nc3ccccc32)c(C)c1CCC(=O)O [Orantinib]
drug sensitivity score: 2.6

CCn1nnc2c(N3CCOCC3)nc(-c3ccc(NC(=O)Nc4ccc(C(=O)N5CCN(C)CC5)cc4)cc3)nc21 [PKI-402]
drug sensitivity score: 19.1

C/C(=C\c1csc(C)n1)[C@@H]1C[C@@H]2O[C@]2(C)CCC[C@H](C)[C@H](O)[C@@H](C)C(=O)C(C)(C)[C@@H](O)CC(=O)O1 [Patupilone]
drug sensitivity score: 9.3

CCOc1cc2ncc(C#N)c(Nc3ccc(F)c(Cl)c3)c2cc1NC(=O)/C=C/CN(C)C [Pelitinib]
drug sensitivity score: 13.1

COc1ccc(Cl)c(Nc2nc3ccccc3nc2NS(=O)(=O)c2cccc(NC(=O)C(C)(C)N)c2)c1 [Pilaralisib]
drug sensitivity score: 2.2

O=C(NC[C@H](O)CO)c1ccncc1Nc1ccc(I)cc1F [Pimasertib]
drug sensitivity score: 14.7

O=C(CCBr)N1CCN(C(=O)CCBr)CC1 [Pipobroman]
drug sensitivity score: 1.6

C[C@]12C=CC(=O)C=C1CC[C@@H]1[C@@H]2C(=O)C[C@@]2(C)[C@H]1CC[C@]2(O)C(=O)CO [Prednisone]
drug sensitivity score: 0

CNNCc1ccc(C(=O)NC(C)C)cc1 [Procarbazine]
drug sensitivity score: 0

Cc1cc(-c2ncc(-c3cccnc3)cc2/C=C/c2ccccc2)cnc1-c1cccnc1 [Pyridoclax]
drug sensitivity score: 5.5

Cn1c(Nc2ccc(C(F)(F)F)cc2)nc2cc(Oc3ccnc(-c4ncc(C(F)(F)F)[nH]4)c3)ccc21 [RAF265]
drug sensitivity score: 8.1

CNC(=O)c1ccc(N2C(=S)N(c3ccc(C#N)c(C(F)(F)F)c3)C(=O)C23CCC3)cc1F [RD162]
drug sensitivity score: 0

CCNC(=O)Nc1ccc(-c2nc3c(c(N4CCOC[C@@H]4C)n2)CCN(C2COC2)C3)cc1 [RG-7603]
drug sensitivity score: 7.8

C[C@@H]1C[C@H]2O[C@@H]2/C=C\C=C\C(=O)Cc2c(Cl)c(O)cc(O)c2C(=O)O1 [Radicicol]
drug sensitivity score: 3.2

CNC(=O)c1cc(Oc2ccc(NC(=O)Nc3cc(C(C)(C)C)nn3-c3ccc4ncccc4c3)c(F)c2)ccn1 [Rebastinib]
drug sensitivity score: 0

COc1cc(F)c(F)c(Nc2ccc(I)cc2F)c1NS(=O)(=O)C1(C[C@H](O)CO)CC1 [Refametinib]
drug sensitivity score: 14.8

CS(=O)(=O)c1ccc(C2=C(c3ccccc3)C(=O)OC2)cc1 [Rofecoxib]
drug sensitivity score: 0

Cn1cc(-c2ccc3nnc(Sc4ccc5ncccc5c4)n3n2)cn1 [SGX-523]
drug sensitivity score: 0

CC(C)NC(=O)COc1cccc(-c2nc(Nc3ccc4[nH]ncc4c3)c3ccccc3n2)c1 [SLx-2119]
drug sensitivity score: 2.7

O=C(Nc1cccc(Cl)c1)Nc1ncc(CCNc2ncnc3ccsc23)s1 [SNS-314]
drug sensitivity score: 0.4

Cc1cc(C)c(/C=C2\C(=O)Nc3ccccc32)[nH]1 [Semaxanib]
drug sensitivity score: 4.4

c1ccc2c(CCNc3ccc(Nc4ccncc4)cc3)c[nH]c2c1 [Serdemetan]
drug sensitivity score: 3.4

O=[N+]([O-])c1ccc2c(c1)S(=O)(=O)C=C2 [Stattic]
drug sensitivity score: 6.3

CN(N=O)C(=O)N[C@@H](C=O)[C@@H](O)[C@H](O)[C@H](O)CO [Streptozocin]
drug sensitivity score: 0

N#Cc1c(Oc2ccc(F)c(NC(=O)Cc3cccc(C(F)(F)F)c3)c2)ccc2nc(NC(=O)C3CC3)sc12 [TAK-632]
drug sensitivity score: 4.4

CCc1nc(-c2cccc(C)c2)c(-c2ccnc(NC(=O)c3ccccc3)c2)s1 [TAK-715]
drug sensitivity score: 0

Cn1c(=O)c(F)c(Nc2ccc(I)cc2F)c2c(=O)n(C[C@@H](O)CO)cnc21 [TAK-733]
drug sensitivity score: 13.2

COc1cc(C(=O)NC2CCN(C)CC2)c(F)cc1Nc1ncc2c(n1)N(C1CCCC1)CC(F)(F)C(=O)N2C [TAK-960]
drug sensitivity score: 0

NC(=O)Nc1sc(-c2ccc(F)cc2)cc1C(N)=O [TPCA-1]
drug sensitivity score: 2.9

C=CCNC1=C2C[C@@H](C)C[C@H](OC)[C@H](O)[C@@H](C)/C=C(\C)[C@H](OC(N)=O)[C@@H](OC)/C=C\C=C(/C)C(=O)NC(=CC1=O)C2=O [Tanespimycin]
drug sensitivity score: 14.6

S=P(N1CC1)(N1CC1)N1CC1 [Thio-TEPA]
drug sensitivity score: 0.7

O=C(O)CSc1cc(NS(=O)(=O)c2ccc(Br)cc2)c2ccccc2c1O [UMI-77]
drug sensitivity score: 14.3

Oc1ncc(N(CCCl)CCCl)c(O)n1 [Uramustine]
drug sensitivity score: 0.1

O=c1ncn2nc(Sc3ccc(F)cc3F)ccc2c1-c1c(Cl)cccc1Cl [VX 745]
drug sensitivity score: 0

CCn1c(=O)c(-c2cc[nH]n2)cc2c(C)nc(N)nc21 [Voxtalisib]
drug sensitivity score: 10.6

O=C(Nc1ccc(-c2ccnc(Nc3ccc(N4CCOCC4)cc3)n2)cc1)C1CCCN1 (stereo unspecified) [XL019]
drug sensitivity score: 0.5

COc1cc2c(Nc3ccc(Cl)c(Cl)c3F)ncnc2cc1OC[C@@H]1C[C@@H]2CN(C)C[C@@H]2C1 [XL-647]
drug sensitivity score: 9.1

COCC[n+]1c2c(n(Cc3cnccn3)c1C)C(=O)c1ccccc1C2=O [YM155]
drug sensitivity score: 35.5

c1ccc(Cn2c(-c3ccc(OC[C@H](C4CCNCC4)n4c(-c5ccccc5)nc5ccccc54)cc3)nc3ccccc32)cc1 [deltarasin]
drug sensitivity score: 5.5
